Results reported in patent US20230192703A1, “Polycyclic amide derivative as CDK9 inhibitor, preparation method therefor and use thereof” (Suzhou AlphaMa Biotechnology Co., Ltd., priority 2020, published 2023).

Experiments:
CDK9 kinase = biological target: T1, CDK9 kinase (Homo sapiens, UniProt P50750); assay: Inhibitory effect on the kinase activity of CDK9 in vitro; format: biochemical; settings: CDK9 kinase (Millipore), CTD3 substrate polypeptide, Caliper
T1 construct: purchased Millipore 14-685M
Procedure: The detection of the inhibitory effect of the compounds of the present disclosure on the kinase activity of CDK9 in vitro was determined by the following method:
Compound preparation: The compound was accurately weighed and dissolved in DMSO (Sigma, D2650) to a concentration of 100 um for later use. The compound was diluted to 5-fold of a desired highest concentration, and diluted 4-fold into 6 concentration gradients, allowing the final concentration of the compound in the reaction system to be 100, 25, 6.25, 1.56, 0.39, 0.098 nM. 5 ul was taken to a 384-well plate (Corning, 4512).
Detection: Data was collected by Caliper.
Calculation: The IC50 value was calculated by Graphpad prism 5.0 software according to the concentration of the compound and the corresponding signal value.

Mv4-11 cells = assay: Inhibition of the proliferation of Mv4-11 cells (CCK8); format: cell-based; settings: Mv4-11 cell proliferation, CCK8 OD450
Procedure: The inhibition effect of the compounds of the present disclosure on the proliferation of Mv4-11 cells (ATCC:CRL-9591TM) in vitro was determined by the following method:
Cell inoculation: Mv4-11 cells with good growing state in logarithmic growth phase were inoculated into a 96-well plate at 20000 cells per well and 50 uL, and cultured at 37° C. and under 5% CO2 condition for 2-4 h. Administration: The compound was diluted with 1640 medium containing 10% FBS and 1% PS: 0.4 uL of the compound with an initial concentration of 1 mM was placed in a dilution plate, each added with 199.6 uL of the above culture medium, and gradiently diluted 4-fold, so that the final concentration in the added cell was 1000, 250, 62.5, 15.625, 3.91, 0.98, 0.24, 0.06 nM. 50 μL of the medium containing the compound was sequentially added, and it was placed in a 37° C., 5% CO2 cell incubator for 48 hours.
Detection: 10 uL CCK8 (Dojindo, CK 04) solution was added to each well, incubated in 37° C. 5% CO2 cell incubator for 2 hours, and then the OD450 value was read by Synegry H1 (BioTek) multimode microplate reader.
Calculation: The IC50 value was calculated using Graphpad prism 5.0 software according to the concentration of the compound and the corresponding signal value.

T1 sequence (P50750 whole entry): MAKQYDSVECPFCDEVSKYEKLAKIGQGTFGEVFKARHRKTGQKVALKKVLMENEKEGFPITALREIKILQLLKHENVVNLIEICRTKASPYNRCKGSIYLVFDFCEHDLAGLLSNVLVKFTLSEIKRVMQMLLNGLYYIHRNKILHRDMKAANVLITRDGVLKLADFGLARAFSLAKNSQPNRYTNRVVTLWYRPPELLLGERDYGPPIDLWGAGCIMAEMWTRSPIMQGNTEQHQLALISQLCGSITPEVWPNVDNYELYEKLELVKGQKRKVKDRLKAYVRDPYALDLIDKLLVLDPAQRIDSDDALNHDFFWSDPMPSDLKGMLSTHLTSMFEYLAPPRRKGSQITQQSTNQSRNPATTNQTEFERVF
T1 sequence (O60563 whole entry partner): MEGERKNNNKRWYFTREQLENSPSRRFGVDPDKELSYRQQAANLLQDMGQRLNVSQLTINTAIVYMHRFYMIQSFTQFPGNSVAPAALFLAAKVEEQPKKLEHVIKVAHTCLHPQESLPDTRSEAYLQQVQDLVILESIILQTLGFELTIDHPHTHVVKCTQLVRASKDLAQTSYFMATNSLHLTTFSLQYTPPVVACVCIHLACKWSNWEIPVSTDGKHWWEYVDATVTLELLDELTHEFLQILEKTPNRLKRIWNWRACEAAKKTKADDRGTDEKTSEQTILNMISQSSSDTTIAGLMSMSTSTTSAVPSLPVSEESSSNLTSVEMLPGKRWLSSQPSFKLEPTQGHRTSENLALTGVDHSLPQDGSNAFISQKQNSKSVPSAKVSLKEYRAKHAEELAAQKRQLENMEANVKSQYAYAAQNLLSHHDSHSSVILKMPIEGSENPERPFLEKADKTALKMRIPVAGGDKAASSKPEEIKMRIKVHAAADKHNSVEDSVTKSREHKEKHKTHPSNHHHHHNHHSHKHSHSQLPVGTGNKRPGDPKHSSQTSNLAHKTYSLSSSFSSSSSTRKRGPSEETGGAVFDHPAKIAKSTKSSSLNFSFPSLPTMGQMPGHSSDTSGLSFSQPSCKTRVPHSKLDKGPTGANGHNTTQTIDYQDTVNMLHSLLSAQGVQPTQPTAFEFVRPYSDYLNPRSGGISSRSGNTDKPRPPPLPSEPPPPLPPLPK

| Compound | IC50 (CDK9 kinase) | IC50 (Mv4-11 cells; Homo sapiens, MV4-11, 48 h) | IC50 (Mv4-11 cells; 48 hours) |
| --- | --- | --- | --- |
| CC(=O)N1C[C@H]2CC(C(=O)Nc3cc(-c4cnn5c4CC(C)(C)C5)c(Cl)cn3)C[C@H]2C1 (single isomer, unassigned) [Compound 4-2] | 2.9 nM | 6.8 nM | – |
| CC(=O)N1C[C@H]2CC(C(=O)Nc3cc(-c4cc(C(N)=O)n5c4CC(C)(C)C5)c(Cl)cn3)C[C@H]2C1 (single isomer, unassigned) [Compound 8-1] | 3.5 nM | – | 7.7 nM |
| CC(=O)N1C[C@H]2CC(C(=O)Nc3cc(-c4cc(C(N)=O)n5c4CC(C)(C)C5)c(Cl)cn3)C[C@H]2C1 (single isomer, unassigned) [Compound 8-2] | 3.1 nM | – | 0.4 nM |
| CC(=O)N[C@H]1C[C@@H]2C[C@@H](C(=O)Nc3cc(-c4cc(C#N)n5c4CC(C)(C)C5)c(Cl)cn3)C[C@@H]2C1 (single isomer, unassigned) [Compound 14-1-1] | – | 23.9 nM | – |
| CC(=O)N[C@@H]1C[C@@H]2C[C@@H](C(=O)Nc3cc(-c4cc(C#N)n5c4CC(C)(C)C5)c(Cl)cn3)C[C@@H]2C1 (single isomer, unassigned) [Compound 14-1-2] | – | 11.1 nM | – |
| CC(=O)N[C@H]1C[C@@H]2C[C@H](C(=O)Nc3cc(-c4cc(C#N)n5c4CC(C)(C)C5)c(Cl)cn3)C[C@@H]2C1 (single isomer, unassigned) [Compound 14-2-1] | 4.3 nM | 10.6 nM | – |
| CC(=O)N[C@@H]1C[C@@H]2C[C@H](C(=O)Nc3cc(-c4cc(C#N)n5c4CC(C)(C)C5)c(Cl)cn3)C[C@@H]2C1 (single isomer, unassigned) [Compound 14-2-2] | 10.4 nM | 44.6 nM | – |
| CC(=O)N1CC[C@@]2(CC[C@H](C(=O)Nc3cc(-c4cnn5c4CC(C)(C)C5)c(Cl)cn3)C2)C1 (single isomer, unassigned) [Compound 18-1] | 3.2 nM | 1.4 nM | – |
| CC(=O)N1C[C@H]2C[C@H](C(=O)Nc3cc(-c4cnn5c4CC(C)(C)C5)c(Cl)cn3)C[C@H]2C1 [Compound 4-1, (3aR,5s,6aS)-2-acetyl-N-(5-chloro-4-(5,5-dimethyl-5,6-dihydro-4H-pyrrolo[1,2-b]pyrazol-3-yl)pyridin-2-yl)octahydrocyclopenta[c]pyrrole-5-carboxamide] | – | 14.8 nM | – |
| CC(=O)N1C[C@H]2C[C@@H](C(=O)Nc3cc(-c4cc(C#N)n5c4CC(C)(C)C5)c(Cl)cn3)C[C@H]2C1 [Compound 7-2, (3aR,5r,6aS)-2-acetyl-N-(5-chloro-4-(5-cyano-2,2-dimethyl-2,3-dihydro-1H-pyrrolizin-7-yl)pyridin-2-yl)octahydrocyclopenta[c]pyrrole-5-carboxamide] | – | 8.6 nM | – |
| CC(=O)N[C@@H]1CCC[C@H](C(=O)Nc2cc(-c3cc(C#N)n4c3CC(C)(C)C4)c(F)cn2)C1 [Compound 10, (1S,3R)-3-acetamido-N-(4-(5-cyano-2,2-dimethyl-2,3-dihydro-1H-pyrrolizin-7-yl)-5-fluoropyridin-2-yl)cyclohexane-1-carboxamide] | – | 26.9 nM | – |
| CC(=O)N[C@@H]1CCC[C@H](C(=O)Nc2cc(-c3cc(C#N)n4c3CC(C)(C)C4)ccn2)C1 [Compound 11, (1S,3R)-3-acetamido-N-(4-(5-cyano-2,2-dimethyl-2,3-dihydro-1H-pyrrolizin-7-yl)pyridin-2-yl)cyclohexane-1-carboxamide] | – | 2.2 nM | – |
| CC(=O)N[C@@H]1CCC[C@H](C(=O)Nc2cc(-c3cc(C#N)c4n3CC(C)(C)C4)c(Cl)cn2)C1 [Compound 16, (1S,3R)-3-acetamido-N-(5-chloro-4-(7-cyano-2,2-dimethyl-2,3-dihydro-1H-pyrrolizin-5-yl)pyridin-2-yl)cyclohexane-1-carboxamide] | 2.9 nM | – | – |
| CC(=O)N[C@@H]1CCC[C@H](C(=O)Nc2cc(-c3cc(C(N)=O)c4n3CC(C)(C)C4)ccn2)C1 [Compound 28, 5-(2-((1S,3R)-3-acetylaminocyclohexane-1-carboxamido)pyridin-4-yl)-2,2-dimethyl-2,3-dihydro-1H-pyrrolizine-7-carboxamide] | – | 36.5 nM | – |
| CC(=O)N[C@@H]1CCC[C@H](C(=O)Nc2cc(-c3cc(C(N)=O)n4c3CC(C)(C)C4)c(F)cn2)C1 [Compound 33, 7-(2-((1S,3R)-3-acetylaminocyclohexane-1-carboxamido)-5-fluoropyridin-4-yl)-2,2-dimethyl-2,3-dihydro-1H-pyrrolizine-5-carboxamide] | – | 1.3 nM | – |

Next, values leading:

| IC50 (CDK9 kinase) | IC50 (Mv4-11 cells; Homo sapiens, MV4-11, 48 h) | IC50 (Mv4-11 cells; 48 hours) | Compound |
| --- | --- | --- | --- |
| 5.5 nM | 12.2 nM | – | CC(=O)N1CC[C@@]2(CC[C@@H](C(=O)Nc3cc(-c4cnn5c4CC(C)(C)C5)c(Cl)cn3)C2)C1 (single isomer, unassigned) [Compound 19-1] |
| – | 84.2 nM | – | CC(=O)N1CC[C@]2(CC[C@H](C(=O)Nc3cc(-c4cnn5c4CC(C)(C)C5)c(Cl)cn3)C2)C1 (single isomer, unassigned) [Compound 19-2] |
| 28.6 nM | 352 nM | – | CC1(C)Cc2c(-c3cc(NC(=O)[C@H]4CCC[C@H](c5cccnc5)C4)ncc3Cl)cnn2C1 (single isomer, unassigned) [Compound 20-1] |
| 7 nM | 15 nM | – | CC1(C)Cc2c(-c3cc(NC(=O)[C@@H]4CCC[C@H](c5cccnc5)C4)ncc3Cl)cnn2C1 (single isomer, unassigned) [Compound 20-2] |
| > 100 nM | > 1000 nM | – | CC1(C)Cc2c(-c3cc(NC(=O)[C@H]4CCC[C@@H](c5cccnc5)C4)ncc3Cl)cnn2C1 (single isomer, unassigned) [Compound 20-3] |
| 2.8 nM | 0.5 nM | – | CC1(C)Cc2c(-c3cc(NC(=O)[C@@H]4CCC[C@@H](c5cccnc5)C4)ncc3Cl)cnn2C1 (single isomer, unassigned) [Compound 20-4] |
| – | 68.5 nM | – | CC1(C)Cc2c(-c3cc(NC(=O)[C@H]4CCC[C@H](c5ccncc5)C4)ncc3Cl)cnn2C1 (single isomer, unassigned) [Compound 21-1] |
| – | 16.2 nM | – | CC1(C)Cc2c(-c3cc(NC(=O)[C@@H]4CCC[C@H](c5ccncc5)C4)ncc3Cl)cnn2C1 (single isomer, unassigned) [Compound 21-2] |
| 2.8 nM | 6.3 nM | – | CC1(C)Cc2c(-c3cc(NC(=O)[C@H]4CCC[C@@H](c5ccncc5)C4)ncc3Cl)cnn2C1 (single isomer, unassigned) [Compound 21-3] |
| – | 71.9 nM | – | CC1(C)Cc2c(-c3cc(NC(=O)[C@@H]4CCC[C@@H](c5ccncc5)C4)ncc3Cl)cnn2C1 (single isomer, unassigned) [Compound 21-4] |
| 3.8 nM | 7.9 nM | – | Cn1cc([C@@H]2CCC[C@H](C(=O)Nc3cc(-c4cnn5c4CC(C)(C)C5)c(Cl)cn3)C2)cn1 (single isomer, unassigned) [Compound 23-1] |
| 3.8 nM | 5.9 nM | – | CC(=O)N[C@H]1C[C@@H]2C[C@@H](C(=O)Nc3cc(-c4cc(C(N)=O)n5c4CC(C)(C)C5)c(Cl)cn3)C[C@@H]2C1 (single isomer, unassigned) [Compound 24-1] |
| 2.9 nM | 4.1 nM | – | CNC(=O)C1C[C@@H]2CC(C(=O)Nc3cc(-c4cc(C(N)=O)n5c4CC(C)(C)C5)c(Cl)cn3)C[C@@H]2C1 (single isomer, unassigned) [Compound 26-1] |
| 3.5 nM | – | 5.1 nM | CNC(=O)C1C[C@@H]2CC(C(=O)Nc3cc(-c4cc(C(N)=O)n5c4CC(C)(C)C5)c(Cl)cn3)C[C@@H]2C1 (single isomer, unassigned) [Compound 26-2] |
| 4.8 nM | – | 3.5 nM | CC(=O)N1C[C@H]2CC(C(=O)Nc3cc(-c4cc(C(N)=O)n5c4CC(C)(C)C5)ccn3)C[C@H]2C1 (single isomer, unassigned) [Compound 32-1] |
| 2.8 nM | – | 0.9 nM | CC(=O)N1C[C@H]2CC(C(=O)Nc3cc(-c4cc(C(N)=O)n5c4CC(C)(C)C5)ccn3)C[C@H]2C1 (single isomer, unassigned) [Compound 32-2] |
| – | 4.2 nM | – | CC(=O)N[C@@H]1CCC[C@H](C(=O)Nc2cc(-c3cnn4c3CC(C)(C)C4)c(Cl)cn2)C1 [AZD4573, reference compound] |
| – | 9 nM | – | CC(=O)N[C@@H]1C[C@@H]2C[C@H](C(=O)Nc3cc(-c4cc(C(N)=O)n5c4CC(C)(C)C5)c(F)cn3)C[C@@H]2C1 [Compound 34-2, 7-(2-((2s,3aR,5r,6aS)-5-acetylaminooctahydropentalene-2-carboxamido)-5-fluoropyridin-4-yl)-2,2-dimethyl-2,3-dihydro-1H-pyrrolizine-5-carboxamide] |
